Laboratory results published in publication PMC12357248, “Selectively targeting BCL6 using a small-molecule inhibitor is a potential therapeutic strategy for glioblastoma” (Genes & Diseases, 2025).

How the values were obtained:
BCL6 = experiment: Western blotting of BCL6 after TMZ treatment; assay type: cell-based; details: U251, SF268, U87-MG, 24 h
Experimental: Cell lines were treated with drugs, and tumor tissues were collected in a Ripa lysis buffer. Western blotting was performed using antibodies against BCL6 (14895S, Cell Signaling Technology), PARP (poly(ADP-Ribose) polymerase; 9532S, Cell Signaling Technology), γH2AX (phosphorylated form of H2A.X variant histone; 9718S, Cell Signaling Technology), phospho-ERK (4370S, Cell Signaling Technology), ERK (extracellular signal-regulated kinase; 4695T, Cell Signaling Technology), phospho-AKT (4060S, Cell Signaling Technology), AKT (9272S, Cell Signaling Technology), GAPDH (AB0036, ABWAYS), BCL2 (T40056F, ABWAYS), c-MYC (CY5150, ABWAYS).

U87-MG-Luc xenograft = experiment: Intracranial (orthotopic) U87-MG-Luc GBM xenograft; assay type: in vivo, BALB/c nude mice; details: TMZ 5 mg/kg, YK01 12.5 mg/kg, intraperitoneally
Text: An orthotopic U87-MG GBM-bearing mouse model of BALB/c nude mice was created. Five microlitres of U87-MG-Luc cells (1 × 10^5 cells) were implanted into the left striatum of anaesthetized animals. The burr hole was then filled with bone wax, and the scalp was closed with tissue glue. To assess the growth of the glioma, bioluminescence imaging (in vivo imaging system, Lumina III) was used to determine its size. […]

[1] = molecular target: BCL6^BTB/SMRT interaction (Homo sapiens, UniProt P41182); experiment: HTRF assay, BCL6-BTB/SMRT interaction; assay type: binding
BCL6^BTB = molecular target: T1, BCL6^BTB (Homo sapiens, UniProt P41182); experiment: Luciferase reporter assay, BCL6-BTB-mediated transcriptional repression; assay type: cell-based; details: even at 20 μM
T1 construct: expressed in transfected cells

eGFP-BCL6 (FL) = molecular target: T2, eGFP-BCL6 (FL) (Homo sapiens, UniProt P41182); experiment: BCL6-eGFP-mCherry stability reporter in HEK293T cells; assay type: cell-based; details: 1 μM
T2 construct: a gene encoding the full-length BCL6 protein fused to eGFP; expressed in transfected cells; host or cells: HEK293T

SF268 = experiment: MTS cell viability assay; assay type: cell-based; details: Homo sapiens, SF-268
Experimental: (§1) Cell viability was tested by MTS assay (Promega, USA). 8000 cells were seeded in a 96-well plate and then treated with compounds for 72 h, followed by the addition of 20 μL of MTS and incubation at 37 °C for 2–3 h. Absorbance at 490 nm is measured with the SpectraMax 190 plate reader, and the IC50 value is calculated by GraphPad Prism. In the drug combination assay, combination index (CI) values were calculated using CalcuSyn software. A CI value greater than 1 has a drug antagonistic effect, and a value less than 1 has a synergistic effect.

U251 = experiment: MTS cell viability assay; assay type: cell-based; details: Homo sapiens, U-251
Experimental: as §1

U87-MG = experiment: MTS cell viability assay; assay type: cell-based; details: Homo sapiens, U-87 MG
Experimental: as §1

`Cn1nnc2c(C(N)=O)ncn2c1=O` [TMZ, temozolomide] was tested, and the BCL6 expression (BCL6) was “up-regulated” and the “U87-MG-luci xenograft growth (bioluminescence)” value (U87-MG-Luc xenograft) was “improved”.

For `CNC(=O)COc1cc2cc(Nc3nc(N4C[C@H](C)C[C@H](C)C4)ncc3Cl)ccc2n(C)c1=O` [BI3802], the IC50 [1] was 0.0027 µM, the “effect on BCL6^BTB” value (BCL6^BTB) was “little effect” and the “effect on eGFP-BCL6 (FL) reporter” value (eGFP-BCL6 (FL)) was “degradation”.

With `O=C(O)CCN1C(=O)/C(=C2/C(=O)Nc3ccc(Cl)cc32)SC1=S` [FX1] the IC50 (SF268) was 43.9 ± 1.23 µM, the IC50 (U251) was 37.4 ± 1.41 µM and the IC50 (U87-MG) was 32 ± 1.12 µM.
